Article PMC4658230 (Toxicology, 2015)
Like-named read-outs stand apart in the source and are kept apart here.

Key:
[1] = molecular target: T1, mtCYP2E1 (Rattus norvegicus, UniProt P05182); settings: for Preferred Mechanism: rat liver mitochondria, best of six steady-state mechanisms (DynaFit)
[2] = molecular target: T1, mtCYP2E1; settings: mitochondria 2 mg/mL, methanol only
[3] = molecular target: T2, erCYP2E1 (Rattus norvegicus, UniProt P05182); assay: Steady-state kinetics of substrate oxidation by rat liver microsomes; settings: for Preferred Mechanism: rat liver microsomes, best of six steady-state mechanisms (DynaFit)
[4] = molecular target: T2, erCYP2E1; settings: microsomes 0.5 mg/mL, methanol only
[5] = more recent studies of industrial workers; ref Bonanni et al. 2015; cited from earlier work
[6] = molecular target: T1, mtCYP2E1; settings: low concentration (10 μM); equal CYP2E1 levels in each compartment assumed
[7] = molecular target: T2, erCYP2E1; settings: equal CYP2E1 levels in each compartment assumed
[8] = rat liver microsomes 0.5 mg/mL, 1 mM NADPH, 37°C, pH 7.4

T1 sequence (P05182 2-493 limits assumed): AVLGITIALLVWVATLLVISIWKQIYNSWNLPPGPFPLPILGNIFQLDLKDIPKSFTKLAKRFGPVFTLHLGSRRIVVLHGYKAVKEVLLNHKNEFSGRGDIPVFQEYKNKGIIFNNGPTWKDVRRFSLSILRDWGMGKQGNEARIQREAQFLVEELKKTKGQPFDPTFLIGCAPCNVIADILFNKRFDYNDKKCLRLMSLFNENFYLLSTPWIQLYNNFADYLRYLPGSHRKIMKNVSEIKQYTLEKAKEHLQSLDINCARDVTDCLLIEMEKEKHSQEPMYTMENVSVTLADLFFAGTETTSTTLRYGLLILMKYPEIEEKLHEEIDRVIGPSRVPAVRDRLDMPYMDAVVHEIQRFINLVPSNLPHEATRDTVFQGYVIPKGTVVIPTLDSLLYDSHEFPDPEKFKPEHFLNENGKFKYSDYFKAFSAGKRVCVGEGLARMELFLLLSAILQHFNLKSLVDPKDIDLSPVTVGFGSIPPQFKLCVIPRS
T2 sequence (P05182 whole entry): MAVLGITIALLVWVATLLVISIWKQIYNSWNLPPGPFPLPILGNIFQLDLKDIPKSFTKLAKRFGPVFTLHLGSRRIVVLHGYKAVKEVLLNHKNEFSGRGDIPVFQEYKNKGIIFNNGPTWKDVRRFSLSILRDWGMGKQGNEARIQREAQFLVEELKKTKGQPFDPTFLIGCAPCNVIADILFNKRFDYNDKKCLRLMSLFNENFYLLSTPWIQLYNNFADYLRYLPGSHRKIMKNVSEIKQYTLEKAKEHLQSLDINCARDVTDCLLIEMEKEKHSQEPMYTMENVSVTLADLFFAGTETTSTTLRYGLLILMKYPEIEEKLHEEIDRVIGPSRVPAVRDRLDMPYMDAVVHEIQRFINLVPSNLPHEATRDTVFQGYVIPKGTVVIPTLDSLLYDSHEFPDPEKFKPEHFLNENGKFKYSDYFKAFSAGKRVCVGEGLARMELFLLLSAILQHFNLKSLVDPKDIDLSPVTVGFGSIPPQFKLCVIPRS

kcat ([1]; rat liver mitochondria 2 mg/mL, 1 mM NADPH, 37°C, pH 7.4) | Structure (SMILES) | control (uninhibited) rate of substrate oxidation by mtCYP2E1 ([2]; 50 μM substrate) [pmol/min/pmol CYP2E1] | control (uninhibited) rate of substrate oxidation by mtCYP2E1 ([2]; 500 μM substrate) [pmol/min/pmol CYP2E1] | kcat [3, 8] | control (uninhibited) rate of substrate oxidation by erCYP2E1 ([4]; 50 μM substrate) | control (uninhibited) rate of substrate oxidation by erCYP2E1 ([4]; 500 μM substrate) | styrene plasma levels [5] [µM] | turnover rate of mtCYP2E1 lower than erCYP2E1 ([1]; mtCYP2E1 versus erCYP2E1) | Preferred Mechanism [1] | Kss [3, 8] | Preferred Mechanism [3] | turnover rate of mtCYP2E1 lower than microsomal enzyme ([1]; versus erCYP2E1 after first substrate binding event) [fold] | percent of total metabolism through mtCYP2E1 [6] | binding of second molecule weaker than first binding event ([3]; erCYP2E1, rat liver microsomes) [fold] | rate of turnover of ternary complex higher than binary enzyme-substrate complex ([3]; erCYP2E1, rat liver microsomes) | kcat2 [3, 8] | percent of total metabolism through erCYP2E1 ([7]; high concentration (500 μM)) [%] | percent of total metabolism through erCYP2E1 ([7]; low concentration (10 μM))
100 (96 to 110) pmol/min/pmol CYP2E1 | C=Cc1ccccc1 [styrene] | 54 | 76 | 630 (580 to 690) pmol/min/pmol CYP2E1 | 310 pmol/min/mg | 390 pmol/min/mg | 0.06 | – | – | – | – | – | – | – | – | – | – | –
– | O=[N+]([O-])c1ccc(O)cc1 [4-nitrophenol, reference compound] | 26 | 60 | – | 290 pmol/min/pmol CYP2E1 | 1080 pmol/min/pmol CYP2E1 | – | nine-fold | One-Site Model (Michaelis-Menten) | 2000 (1600 to 2600) μM | Two-Site Model, ES active only | – | – | – | – | – | – | –
– | Nc1ccccc1 [aniline] | 28 | 58 | 500 (230 to 770) pmol/min/pmol CYP2E1 | 260 pmol/min/mg | 1000 pmol/min/mg | – | – | One-Site Model (Michaelis-Menten) | 54 (21 to 550) μM | Two-Site Model, ES and ESS active | 10 | about 6% | 25 | two-fold | 1000 (970 to 1300) pmol/min/pmol CYP2E1 | 95 | approximately 94%
